Assay [1] relates to Diet Induced Obese (DIO) C57BL/6 mice. Description: 10 day DIO mouse model (body weight, food intake, hematology, blood chemistry). The assay is classed as in vivo. Conditions: 240 h, DIO mouse, once a day for 10 days, read-out: DIO Mouse 10-day weight loss vs vehicle; for inhibition in vivo at 0.3 mg/kg: 0.3 mpk sc. The method, boiled down: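 DIO C57BL/6 mice on 60% kcal fat diet received compounds subcutaneously once daily for 10 days at 1.0, 0.5, 0.3, 0.1 or 0.03 mpk, in 10% DMSO in water, after 3-day vehicle acclimation. Body weight and food intake were recorded daily. Hematology and blood chemistry were taken on Day 11, 24 h post-final dose.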

For assay [2], the system named is Male Sprague Dawley rats on high fat diet. In words: 11 day rat DIO model (body weight, food intake, hematology, blood chemistries). In kind it is in vivo. The note with it: 264 h, DIO rat, once a day for 11 days, read-out: DIO Rat 11-day weight loss vs vehicle; for inhibition in vivo at 0.3 mg/kg: 0.3 mpk sc; for inhibition in vivo at 1 mg/kg: 1.0 mpk sc. An excerpt: The objective of this study design is to investigate the efficacy of disclosed compounds in an 11 day rat DIO model used to screen compounds for pharmacologic efficacy on endpoints related to obesity and metabolism. Effects on body weight, food intake, hematology and blood chemistries were the primary readouts of this study design. […] Rats were fed Research Diets D12451 (45% High Fat) and provided water ad libitum. Rats were received and housed in the facility for at least two or three weeks prior to start of test article administration. On Day −4 or −3, rats were randomized into study groups based on body weight and body weights were continued to be recorded daily for the duration of the study. Daily food intake was assessed starting on Study Day −2 by weighing the hopper including the food to avoid loss of food in transfer.
Compounds were formulated into a 100% DMSO stock (at 9 mg/mL) prior to the start, and further diluted into the target working concentration using the vehicle of 10% DMSO in water. Prior to test article administration, starting on Day −3 a dosing acclimation occured with all animals receiving a subcutaneous injection of vehicle (10% DMSO) only for 3 days. Starting on Day 1, test compounds or vehicle were administered based on individual body weight, subcutaneously, once a day for 11 days. All animals were sacrificed on Day 11, approximately 2 hours following the final dosing on Day 11. After sacrifice, whole blood was collected and analyzed for hematology and blood chemistry parameters.
Compounds were tested vs. vehicle at various doses (1.0, 0.5, 0.3, 0.1, 0.03 mpk sc (mg per kg animal weight delivered subcutaneously), and the results are shown in Table 2 below.

Where a name gives a salt, the structure may show the parent alone.

For `CCN(CC)C[C@@H]1CCCN1C(=O)O[C@@H]1CC[C@]2(CO2)[C@@H]([C@@]2(C)O[C@@H]2CC=C(C)C)[C@@H]1OC` [Example 48, (S)-((3R,4S,5S,6R)-5-methoxy-4-((2R,3R)-2-methyl-3-(3-methylbut-2-enyl)oxiran-2-yl)-1-oxaspiro[2.5]octan-6-yl) 2-((diethylamino)methyl)pyrrolidine-1-carboxylate formate], the inhibition in vivo at 0.3 mg/kg in assay [1] amounted to 7.2%. Also, in assay [2], the inhibition in vivo at 0.3 mg/kg came out at 0.65% and the inhibition in vivo at 1 mg/kg worked out at 7.88%.

For the molecule `CO[C@@H]1[C@H](OC(=O)N2CC[C@H](CCN3CCOCC3)C2)CC[C@]2(CO2)[C@H]1[C@@]1(C)O[C@@H]1CC=C(C)C` [Example 54, (S)-((3R,4S,5S,6R)-5-methoxy-4-((2R,3R)-2-methyl-3-(3-methylbut-2-enyl)oxiran-2-yl)-1-oxaspiro[2.5]octan-6-yl) 3-(2-morpholinoethyl)pyrrolidine-1-carboxylate], the inhibition in vivo at 0.3 mg/kg worked out at 16.4% in assay [1] and 7.3% in assay [2].

Consider `CO[C@@H]1[C@H](OC(=O)N2CC[C@@H](CCN3CCOCC3)C2)CC[C@]2(CO2)[C@H]1[C@@]1(C)O[C@@H]1CC=C(C)C` [Example 55, (R)-(3R,4S,5S,6R)-5-methoxy-4-((2R,3R)-2-methyl-3-(3-methylbut-2-en-1-yl)oxiran-2-yl)-1-oxaspiro[2.5]octan-6-yl 3-(2-morpholinoethyl)pyrrolidine-1-carboxylate], for which the inhibition in vivo at 0.3 mg/kg in assay [1] came to 12.2%; in assay [2], 7.5%.

`CCN(CC)C[C@H]1CCCN1C(=O)O[C@@H]1CC[C@]2(CO2)[C@@H]([C@@]2(C)O[C@@H]2CC=C(C)C)[C@@H]1OC` [Example 60, (R)-((3R,4S,5S,6R)-5-methoxy-4-((2R,3R)-2-methyl-3-(3-methylbut-2-enyl)oxiran-2-yl)-1-oxaspiro[2.5]octan-6-yl) 2-((diethylamino)methyl)pyrrolidine-1-carboxylate formate]: the inhibition in vivo at 0.3 mg/kg in assay [1] was found to be 6.3%; in assay [2], 1.95%. Moreover, in assay [2], the inhibition in vivo at 1 mg/kg is 7.79%.

Turning to `CNC(=O)OCC1CN(C(=O)O[C@@H]2CC[C@]3(CO3)[C@@H]([C@@]3(C)O[C@@H]3CC=C(C)C)[C@@H]2OC)C1` [Example 69, (3R,4S,5S,6R)-5-methoxy-4-((2R,3R)-2-methyl-3-(3-methylbut-2-enyl)oxiran-2-yl)-1-oxaspiro[2.5]octan-6-yl 3-((methylcarbamoyloxy)methyl)azetidine-1-carboxylate], the values for the inhibition in vivo at 0.3 mg/kg in assay [1] and in assay [2] were 12.7% and 2.1%, respectively.

Consider `CO[C@@H]1[C@H](OC(=O)N2CC(OC(=O)N3CCOCC3)C2)CC[C@]2(CO2)[C@H]1[C@@]1(C)O[C@@H]1CC=C(C)C` [Example 71, 1-(((3R,4S,5S,6R)-5-methoxy-4-((2R,3R)-2-methyl-3-(3-methylbut-2-enyl)oxiran-2-yl)-1-oxaspiro[2.5]octan-6-yloxy)carbonyl)azetidin-3-yl morpholine-4-carboxylate formate], for which the results for the inhibition in vivo at 0.3 mg/kg in assay [1] and in assay [2] were 8.9% and 10.3%, respectively. Also, in assay [2], the inhibition in vivo at 1 mg/kg came out at 10.3%.

For `CO[C@@H]1[C@H](OC(=O)N2CC(OC(=O)N3CCN(CC(F)F)CC3)C2)CC[C@]2(CO2)[C@H]1[C@@]1(C)O[C@@H]1CC=C(C)C` [Example 80, 1-(((3R,4S,5S,6R)-5-methoxy-4-((2R,3R)-2-methyl-3-(3-methylbut-2-enyl)oxiran-2-yl)-1-oxaspiro[2.5]octan-6-yloxy)carbonyl)azetidin-3-yl 4-(2,2-difluoroethyl)piperazine-1-carboxylate], the inhibition in vivo at 0.3 mg/kg is 16.5% in assay [1] and 7.3% in assay [2].

`CO[C@@H]1[C@H](OC(=O)N2CC(CCC3CCN(CC(F)F)CC3)C2)CC[C@]2(CO2)[C@H]1[C@@]1(C)O[C@@H]1CC=C(C)C` [Example 91, (3R,4S,5S,6R)-5-methoxy-4-((2R,3R)-2-methyl-3-(3-methylbut-2-enyl)oxiran-2-yl)-1-oxaspiro[2.5]octan-6-yl 3-(2-(1-(2,2-difluoroethyl)piperidin-4-yl)ethyl)azetidine-1-carboxylate formate]: the inhibition in vivo at 0.3 mg/kg in assay [1] amounted to 29.7%; in assay [2], 17.2%.

As to `CO[C@@H]1[C@H](OC(=O)N2CC(CN3CCOCC3)C2)CC[C@]2(CO2)[C@H]1[C@@]1(C)O[C@@H]1CC=C(C)C` [Example 95, (3R,4S,5S,6R)-5-methoxy-4-((2R,3R)-2-methyl-3-(3-methylbut-2-enyl)oxiran-2-yl)-1-oxaspiro[2.5]octan-6-yl 3-(morpholinomethyl)azetidine-1-carboxylate], the inhibition in vivo at 0.3 mg/kg came out at 14.7% in assay [1] and 3% in assay [2].

On to `CO[C@@H]1[C@H](OC(=O)N2CC(Nc3ccccn3)C2)CC[C@]2(CO2)[C@H]1[C@@]1(C)O[C@@H]1CC=C(C)C` [Example 98, (3R,4S,5S,6R)-5-methoxy-4-((2R,3R)-2-methyl-3-(3-methylbut-2-enyl)oxiran-2-yl)-1-oxaspiro[2.5]octan-6-yl 3-(pyridin-2-ylamino)azetidine-1-carboxylate], for which the inhibition in vivo at 0.3 mg/kg worked out at 12.6% in assay [1] and 1.2% in assay [2].

Regarding `CO[C@@H]1[C@H](OC(=O)N2CC(Cc3ccccn3)C2)CC[C@]2(CO2)[C@H]1[C@@]1(C)O[C@@H]1CC=C(C)C` [Example 100, (3R,4S,5S,6R)-5-methoxy-4-((2R,3R)-2-methyl-3-(3-methylbut-2-en-1-yl)oxiran-2-yl)-1-oxaspiro[2.5]octan-6-yl 3-(pyridin-2-ylmethyl)azetidine-1-carboxylate], the inhibition in vivo at 0.3 mg/kg in assay [1] was determined as 9.8%; in assay [2], 5.5%.

With `CCN(CC)CCC1CCN1C(=O)O[C@@H]1CC[C@]2(CO2)[C@@H]([C@@]2(C)O[C@@H]2CC=C(C)C)[C@@H]1OC` (stereo partly drawn) [Example 106, (3R,4S,5S,6R)-5-methoxy-4-((2R,3R)-2-methyl-3-(3-methylbut-2-enyl)oxiran-2-yl)-1-oxaspiro[2.5]octan-6-yl 2-(2-(diethylamino)ethyl)azetidine-1-carboxylate], in assay [1] (Mus musculus, sc, 0.1 mpk sc), the inhibition in vivo at 0.1 mg/kg came to 2%. Besides, in assay [2] (0.5 mpk sc), the inhibition in vivo at 0.5 mg/kg is 4.82%.

With `CO[C@@H]1[C@H](OC(=O)N2CC(CCN3CC(F)(F)C3)C2)CC[C@]2(CO2)[C@H]1[C@@]1(C)O[C@@H]1CCC(C)C` [Example 126, (3R,4S,5S,6R)-4-((2R,3R)-3-isopentyl-2-methyloxiran-2-yl)-5-methoxy-1-oxaspiro[2.5]octan-6-yl3-(2-(3,3-difluoroazetidin-1-yl)ethyl)azetidine-1-carboxylate], in assay [1], the inhibition in vivo at 0.3 mg/kg worked out at 13.2%. Further, in assay [2], the inhibition in vivo at 0.3 mg/kg was determined as 7.4% and the inhibition in vivo at 1 mg/kg worked out at 9.1%.

With `CO[C@@H]1[C@H](OC(=O)N2CC(CCN3CCOCC3)C2)CC[C@]2(CO2)[C@H]1[C@@]1(C)O[C@@H]1CCC(C)C` [Example 127, (3R,4S,5S,6R)-4-((2R,3R)-3-isopentyl-2-methyloxiran-2-yl)-5-methoxy-1-oxaspiro[2.5]octan-6-yl 3-(2-morpholinoethyl)azetidine-1-carboxylate], the inhibition in vivo at 0.3 mg/kg in assay [1] was found to be 15.2%; in assay [2] it was 6.1%. The inhibition in vivo at 1 mg/kg in assay [2] worked out at 10.7%.
